Legend:
K562 = assay: Cytotoxicity against human K562 cells; assay type: functional, cell-based
Hepatocyte = assay: Cytotoxicity against Wistar rat hepatocytes cells by MTT assay; assay type: cell-based
V79 = assay: Cytotoxicity against chinese hamster V79 cells by MTT assay; assay type: cell-based; settings: Cricetulus griseus

CC(=O)O[C@@H]1CC2[C@@](C)(C(=O)O)CCC[C@@]2(C)[C@@H]2C[C@@H]3C4C[C@@]21C[C@]43C (stereo partly drawn)
IC50 (K562): 200 µM
IC50 (Hepatocyte): 231 µM
IC50 (V79): 224 µM
